Our source for the EC50 values is US20220235051A1, “DI-FLUORO AZEPANES AS HBV CAPSID ASSEMBLY MODULATORS” (priority 2019, published 2022).

The first experiment concerns HBV. The experiment can be described thus: HBV replication inhibition assay (BDNA assay) in HepG2.2.15 cells. In kind it is cell-based. The note with it: Hepatitis B virus, HepG2.2.15, 144 h, HepG2.2.15 cells, BDNA assay, encapsidated HBV DNA in supernatant at day 6; read-out: HepG2.2.15 EC50 HBV DNA. Here is the method: HBV replication inhibition by the disclosed compounds were determined in cells infected or transfected with HBV or cells with stably integrated HBV, such as HepG2.2.15 cells (Sells et al. 1987). In this example, HepG2.2.15 cells were maintained in cell culture medium containing 10% fetal bovine serum (FBS), Geneticin, L-glutamine, penicillin and streptomycin. HepG2.2.15 cells were seeded in 96-well plates at a density of 40,000 cells/well and were treated with serially diluted compounds at a final DMSO concentration of 0.5% either alone or in combination by adding drugs in a checker box format. Cells were incubated with compounds for three days, after which medium was removed and fresh medium containing compounds was added to cells and incubated for another three days. At day 6, supernatant was removed and treated with DNase at 37° C. for 60 minutes, followed by enzyme inactivation at 75° C. for 15 minutes. Encapsidated HBV DNA was released from the virions and covalently linked HBV polymerase by incubating in lysis buffer (Affymetrix QS0010) containing 2.5 μg proteinase K at 50° C. for 40 minutes. HBV DNA was denatured by addition of 0.2 M NaOH and detected using a branched DNA (BDNA) QuantiGene assay kit according to manufacturer recommendation (Affymetrix). HBV DNA levels were also quantified using qPCR, based on amplification of encapsidated HBV DNA extraction with QuickExtraction Solution (Epicentre Biotechnologies) and amplification of HBV DNA using HBV specific PCR probes that can hybridize to HBV DNA and a fluorescently labeled probe for quantitation. In addition, cell viability of HepG2.2.15 cells incubated with test compounds alone or in combination was determined by using CellTitre-Glo reagent according to the manufacturer protocol (Promega). The mean background signal from wells containing only culture medium was subtracted from all other samples, and percent inhibition at each compound concentration was calculated by normalizing to signals from HepG2.2.15 cells treated with 0.5% DMSO using equation E1.
% inhibition=(DMSOave−Xi)/DMSOave×100% E1
where DMSOave is the mean signal calculated from the wells that were treated with DMSO control (0% inhibition control) and Xi is the signal measured from the individual wells. EC50 values, effective concentrations that achieved 50% inhibitory effect, were determined by non-linear fitting using Graphpad Prism software (San Diego, Calif.) and equation E2.
Y=Ymin+(Ymax−Ymin)/(1+10(Log EC50−X)×HillSlope) E2
where Y represents percent inhibition values and X represents the logarithm of compound concentrations.
Selected disclosed compounds were assayed in the HBV replication assay (BDNA assay), as described above, and a representative group of these active compounds is shown in Table 3.
As usually defined, the EC50 is the concentration that produces a half-maximal response. As to `C[C@@]1(O)CCC(F)(F)c2c3c(nn2C1)CCN(C(=O)Nc1ccc(F)c(C#N)c1)C3` (stereo in doubt) [Example 55, N-(3-Cyano-4-fluorophenyl)-11,11-difluoro-8-hydroxy-8-methyl-3,4,8,9,10,11-hexahydro-1H-pyrido[4′,3′:3,4]pyrazolo[1,5-a]azepine-2(7H)-carboxamide], the 50% effective concentration (EC50) is 29 nM.
With `C[C@@H]1Cc2nn3c(c2CN1C(=O)Nc1ccc(F)c(C#N)c1)C(F)(F)C[C@H](CO)CC3` [Example 131], the EC50 was found to be 3 nM.
Same read-out and setting: under `O=C(Nc1ccc(F)c(C(F)(F)F)c1)N1CCc2nn3c(c2C1)C(F)(F)CC[C@@H](O)C3` [Example 9, (R)-11,11-Difluoro-N-(4-fluoro-3-(trifluoromethyl)phenyl)-8-hydroxy-3,4,8,9,10,11-hexahydro-1H-pyrido[4′,3′:3,4]pyrazolo[1,5-a]azepine-2(7H)-carboxamide] stands 28 nM.
On the same count and under the same terms, with `C=C1CCC(F)(F)c2c3c(nn2C1)CCN(C(=O)Nc1ccc(F)c(C(F)(F)F)c1)C3` [Example 2, 11,11-Difluoro-N-(4-fluoro-3-(trifluoromethyl)phenyl)-8-methylene-3,4,8,9,10,11-hexahydro-1H-pyrido[4′,3′:3,4]pyrazolo[1,5-a]azepine-2(7H)-carboxamide] the figure was 51 nM.
As to `O=C(Nc1ccnc(Br)c1F)N1CCc2nn3c(c2C1)C(F)(F)CCC(O)(CF)C3` (single isomer, unassigned) [Example 38, (S*)-N-(2-Bromo-3-fluoropyridin-4-yl)-11,11-di fluoro-8-(fluoromethyl) -8-hydroxy-3,4,8,9,10,11-hexahydro-1H-pyrido[4′,3′:3,4]pyrazolo[1,5-a]azepine-2(7H)-carboxamide], the EC50 came to 84 nM.
On the same count and under the same terms, with `CC(=O)NCC1CCC(F)(F)c2c3c(nn2C1)CCN(C(=O)Nc1ccc(F)c(C#N)c1)C3` (centres unmarked) [Example 49] the figure was 33 nM; with `C#CC1(O)CCC(F)(F)c2c3c(nn2C1)CCN(C(=O)Nc1ccnc(Br)c1F)C3` (single isomer, unassigned) [Example 63, (R*)-N-(2-Bromo-3-fluoropyridin-4-yl)-8-ethynyl-11,11-difluoro-8-hydroxy-3,4,8,9,10,11-hexahydro-1H-pyrido[4′,3′:3,4]pyrazolo[1,5-a]azepine-2(7H)-carboxamide], 119 nM; with `C[C@@H]1Cc2nn3c(c2CN1C(=O)Nc1ccnc(Br)c1F)C(F)(F)CCC(O)(CC#N)C3` (single isomer, unassigned) [Example 89, (3R,8S*)-N-(2-Bromo-3-fluoropyridin-4-yl)-8-(cyanomethyl)-11,11-difluoro-8-hydroxy-3-methyl-3,4,8,9,10,11-hexahydro-1H-pyrido[4′,3′:3,4]pyrazolo[1,5-a]azepine-2(7H)-carboxamide], 28 nM.
The same measure, in the same setting: with `C[C@@H]1Cc2nn3c(c2CN1C(=O)Nc1ccnc(C(F)F)c1F)C(F)(F)CC[C@H](O)C3` [Example 74, (3R,8S)-N-(2-(Difluoromethyl)-3-fluoropyridin-4-yl)-11,11-difluoro-8-hydroxy-3-methyl-3,4,8,9,10,11-hexahydro-1H-pyrido[4′,3′:3,4]pyrazolo[1,5-a]azepine-2(7H)-carboxamide] the figure was 11 nM; with `O=C(Nc1ccnc(Br)c1F)N1CCc2nn3c(c2C1)C(F)(F)CCC(O)(COCC(F)F)C3` (single isomer, unassigned) [Example 32, (R*)-N-(2-Bromo-3-fluoropyridin-4-yl)-8-((2,2-difluoroethoxy)methyl)-11,11-difluoro-8-hydroxy-3,4,8,9,10,11-hexahydro-1H-pyrido[4′,3′:3,4]pyrazolo[1,5-a]azepine-2(7H)-carboxamide], 138 nM.

The same experiment, now with this note: Hepatitis B virus, HepG2.2.15, 144 h, read-out: HepG2.2.15 EC50 HBV DNA.
With `N#Cc1cc(NC(=O)N2CCc3nn4c(c3C2)C(F)(F)CCC(CNC(=O)C(F)(F)F)C4)ccc1F` (centres unmarked) [Example 51, N-(3-Cyano-4-fluorophenyl)-11,11-difluoro-8-((2,2,2-trifluoroacetamido)methyl)-3,4,8,9,10,11-hexahydro-1H-pyrido[4′,3′:3,4]pyrazolo[1,5-a]azepine-2(7H)-carboxamide], the 50% effective concentration (EC50) stood at 32 nM.
